# Measured values reported in paper PMC9007951, “Systematically evaluating DOTATATE and FDG as PET immuno-imaging tracers of cardiovascular inflammation” (Scientific Reports, 2022).
# Like-named read-outs stand apart in the source and are kept apart here.
# Assay: Timed organ biodistribution of [^64Cu]Cu-DOTATATE by ex vivo gamma counting
# Format: in vivo, mice
# Settings: mouse, intravenous, 1.85 MBq, total radioactivity, median (IQR); for tissue uptake at 2 h: 120 min after injection; for tissue uptake at 1 min: 1 min after injection; for tissue uptake at 0.5 h: 30 min after injection; for tissue uptake at 5 min: 5 min after injection; for tissue uptake at 1 h: 60 min after injection; for tissue uptake at 0.25 h: 15 min after injection
# Protocol: Wild-type and atherosclerotic animals were injected with approximately 1.85 MBq of [^64Cu]Cu-DOTATATE and euthanized at either 1, 5, 15, 30, 60 or 120 min after injection (Supplementary Fig. S1A) to evaluate the tracer’s biodistribution. After euthanasia, an insulin syringe was used to collect blood samples from the right ventricle. Blood samples were used for the establishment of pharmacokinetics profile. Mice were then perfused with 20 mL of phosphate-buffered saline (PBS) and tissues of interest (heart, aorta, bone marrow, spleen, liver, stomach, bladder, kidneys, intestines, lungs, adrenal gland, muscles and pancreas) were harvested. Tissues were blotted for gamma counting on a Wizard2 2480 automatic gamma counter (Perkin Elmer, Waltham, MA). Values were corrected for decay and normalized to tissue weight to express radioactivity concentration as percentage injected dose per gram (%ID/g). […] To investigate the tracer’s distribution within different blood compartments, after gamma counting, 100 μL of blood were spun down at 2000 g for 15 min at 4 °C. Plasma (supernatant) and cells (pellet) were gamma counted and expressed as percentage of total activity. The remainder of the blood was separated using Lymphoprep density gradient medium (Nycomed Pharma, Zurich, Switzerland) following manufacturer’s instructions. Percentage of activity in mononuclear and polynuclear cells was calculated.
# [1] = liver, female C57BL/6 mice, N=3-7, read-out: Tissue radioactivity, liver
# [2] = lungs, female Apoe^-/- mice 12 weeks on Western Diet, N=3-8, read-out: Tissue radioactivity, lungs
# [3] = lungs, female C57BL/6 mice, N=3-7, read-out: Tissue radioactivity, lungs
# [4] = lymph node, female Apoe^-/- mice 12 weeks on Western Diet, N=3-8, read-out: Tissue radioactivity, lymph node
# [5] = lymph node, female C57BL/6 mice, N=3-7, read-out: Tissue radioactivity, lymph node
# [6] = muscle, female Apoe^-/- mice 12 weeks on Western Diet, N=3-8, read-out: Tissue radioactivity, muscle
# [7] = muscle, female C57BL/6 mice, N=3-7, read-out: Tissue radioactivity, muscle
# [8] = pancreas, female Apoe^-/- mice 12 weeks on Western Diet, N=3-8, read-out: Tissue radioactivity, pancreas
# [9] = pancreas, female C57BL/6 mice, N=3-7, read-out: Tissue radioactivity, pancreas
# [10] = small intestine, female Apoe^-/- mice 12 weeks on Western Diet, N=3-8, read-out: Tissue radioactivity, small intestine
# [11] = small intestine, female C57BL/6 mice, N=3-7, read-out: Tissue radioactivity, small intestine
# [12] = spleen, female Apoe^-/- mice 12 weeks on Western Diet, N=3-8, read-out: Tissue radioactivity, spleen
# [13] = spleen, female C57BL/6 mice, N=3-7, read-out: Tissue radioactivity, spleen
# [14] = stomach, female Apoe^-/- mice 12 weeks on Western Diet, N=3-8, read-out: Tissue radioactivity, stomach
# [15] = stomach, female C57BL/6 mice, N=3-7, read-out: Tissue radioactivity, stomach
# [16] = tail, female Apoe^-/- mice 12 weeks on Western Diet, N=3-8, read-out: Tissue radioactivity, tail
# [17] = tail, female C57BL/6 mice, N=3-7, read-out: Tissue radioactivity, tail
# [18] = thoracic aorta, female Apoe^-/- mice 12 weeks on Western Diet, N=3-8, read-out: Tissue radioactivity, thoracic aorta
# [19] = thoracic aorta, female C57BL/6 mice, N=3-7, read-out: Tissue radioactivity, thoracic aorta
smiles,measurement,setting,value
"C[C@@H](O)[C@H](NC(=O)[C@@H]1CSSC[C@H](NC(=O)[C@@H](Cc2ccccc2)NC(=O)CN2CCN(CC(=O)O)CCN(CC(=O)O)CCN(CC(=O)O)CC2)C(=O)N[C@@H](Cc2ccc(O)cc2)C(=O)N[C@H](Cc2c[nH]c3ccccc23)C(=O)N[C@@H](CCCCN)C(=O)N[C@@H]([C@@H](C)O)C(=O)N1)C(=O)O [[^64Cu]Cu-DOTATATE, metal not drawn]",tissue uptake at 2 h,"liver, female Apoe^-/- mice 12 weeks on Western Diet, N=3-8, read-out: Tissue radioactivity, liver",6.3 %ID/g
same,tissue uptake at 1 min,[1],10 %ID/g
same,tissue uptake at 0.5 h,[1],6.4 %ID/g
same,tissue uptake at 1 min,[2],2.1 %ID/g
same,tissue uptake at 5 min,[2],2.6 %ID/g
same,tissue uptake at 0.5 h,[2],1.6 %ID/g
same,tissue uptake at 1 h,[2],2.5 %ID/g
same,tissue uptake at 2 h,[2],2.8 %ID/g
same,tissue uptake at 5 min,[3],3.2 %ID/g
same,tissue uptake at 0.5 h,[3],1.3 %ID/g
same,tissue uptake at 1 h,[3],1.1 %ID/g
same,tissue uptake at 1 min,[4],2.6 %ID/g
same,tissue uptake at 5 min,[4],3.2 %ID/g
same,tissue uptake at 0.25 h,[4],3 %ID/g
same,tissue uptake at 0.5 h,[4],2.4 %ID/g
same,tissue uptake at 1 h,[4],2.1 %ID/g
same,tissue uptake at 1 min,[5],3 %ID/g
same,tissue uptake at 5 min,[5],4.7 %ID/g
same,tissue uptake at 0.25 h,[5],3.2 %ID/g
same,tissue uptake at 1 h,[5],1.3 %ID/g
same,tissue uptake at 2 h,[5],0.6 %ID/g
same,tissue uptake at 1 min,[6],1.2 %ID/g
same,tissue uptake at 5 min,[6],1.4 %ID/g
same,tissue uptake at 0.25 h,[6],0.6 %ID/g
same,tissue uptake at 0.5 h,[6],0.7 %ID/g
same,tissue uptake at 1 h,[6],0.4 %ID/g
same,tissue uptake at 2 h,[6],0.3 %ID/g
same,tissue uptake at 1 min,[7],2 %ID/g
same,tissue uptake at 5 min,[7],1.6 %ID/g
same,tissue uptake at 0.5 h,[7],0.5 %ID/g
same,tissue uptake at 1 h,[7],0.3 %ID/g
same,tissue uptake at 2 h,[7],0.3 %ID/g
same,tissue uptake at 1 min,[8],4.7 %ID/g
same,tissue uptake at 5 min,[8],4.1 %ID/g
same,tissue uptake at 0.25 h,[8],3.5 %ID/g
same,tissue uptake at 0.5 h,[8],3.4 %ID/g
same,tissue uptake at 1 h,[8],2.7 %ID/g
same,tissue uptake at 2 h,[8],2.6 %ID/g
same,tissue uptake at 1 min,[9],8.7 %ID/g
same,tissue uptake at 5 min,[9],5.3 %ID/g
same,tissue uptake at 0.25 h,[9],6.1 %ID/g
same,tissue uptake at 0.5 h,[9],5.8 %ID/g
same,tissue uptake at 1 h,[9],4.8 %ID/g
same,tissue uptake at 2 h,[9],2.6 %ID/g
same,tissue uptake at 1 min,[10],1.4 %ID/g
same,tissue uptake at 5 min,[10],1.2 %ID/g
same,tissue uptake at 0.5 h,[10],3.1 %ID/g
same,tissue uptake at 2 h,[10],7.2 %ID/g
same,tissue uptake at 1 min,[11],3 %ID/g
same,tissue uptake at 5 min,[11],2 %ID/g
same,tissue uptake at 0.25 h,[11],1.7 %ID/g
same,tissue uptake at 0.5 h,[11],2.6 %ID/g
same,tissue uptake at 1 h,[11],2.4 %ID/g
same,tissue uptake at 1 min,[12],2 %ID/g
same,tissue uptake at 5 min,[12],1.1 %ID/g
same,tissue uptake at 0.25 h,[12],1.2 %ID/g
same,tissue uptake at 0.5 h,[12],1.1 %ID/g
same,tissue uptake at 1 h,[12],0.8 %ID/g
same,tissue uptake at 2 h,[12],1.2 %ID/g
same,tissue uptake at 5 min,[13],1.5 %ID/g
same,tissue uptake at 0.5 h,[13],0.7 %ID/g
same,tissue uptake at 1 h,[13],0.6 %ID/g
same,tissue uptake at 2 h,[13],0.5 %ID/g
same,tissue uptake at 1 min,[14],2.1 %ID/g
same,tissue uptake at 5 min,[14],2.4 %ID/g
same,tissue uptake at 2 h,[14],5 %ID/g
same,tissue uptake at 1 min,[15],2.3 %ID/g
same,tissue uptake at 5 min,[15],2.4 %ID/g
same,tissue uptake at 0.25 h,[15],5 %ID/g
same,tissue uptake at 0.5 h,[15],7.8 %ID/g
same,tissue uptake at 1 h,[15],8 %ID/g
same,tissue uptake at 2 h,[15],3.2 %ID/g
same,tissue uptake at 5 min,[16],2.5 %ID/g
same,tissue uptake at 0.25 h,[16],2.5 %ID/g
same,tissue uptake at 0.5 h,[16],3.1 %ID/g
same,tissue uptake at 1 h,[16],2 %ID/g
same,tissue uptake at 2 h,[16],2.7 %ID/g
same,tissue uptake at 1 min,[17],3.5 %ID/g
same,tissue uptake at 5 min,[17],2.7 %ID/g
same,tissue uptake at 1 h,[17],1.6 %ID/g
same,tissue uptake at 2 h,[17],0.6 %ID/g
same,tissue uptake at 1 min,[18],2.9 %ID/g
same,tissue uptake at 5 min,[18],2.1 %ID/g
same,tissue uptake at 0.25 h,[18],2 %ID/g
same,tissue uptake at 1 h,[18],2.1 %ID/g
same,tissue uptake at 2 h,[18],2.1 %ID/g
same,tissue uptake at 1 min,[19],3.2 %ID/g
same,tissue uptake at 5 min,[19],3.1 %ID/g
same,tissue uptake at 0.25 h,[19],1.6 %ID/g
same,tissue uptake at 0.5 h,[19],1.3 %ID/g
same,tissue uptake at 1 h,[19],1.2 %ID/g
same,tissue uptake at 2 h,[19],1 %ID/g
